Source: paper PMC3341351, “Down-Regulation of GABAA Receptor via Promiscuity with the Vasoactive Peptide Urotensin II Receptor. Potential Involvement in Astrocyte Plasticity” (PLoS ONE, 2012)

How the values were obtained:
Assay type in all cases: cell-based
γ2^HA GABAAR subunit = assay: Cell surface ELISA of γ2^HA GABAAR subunit in CHO-UT^c-myc-α2β3γ2^HA; conditions: hUII 10^−8 M, 30 min, 37°C, 5 to 7 independent experiments in triplicates
Procedure: Cells were plated at 50 000 cells/well in 96-well plates coated with 0.1 mg/ml poly-L-ornithine (Sigma-Aldrich). […] Cells were fixed with 4% PFA in PBS for 5 min at RT, washed in PBS, and then permeabilized in 0.05% triton X100 (only for permeabilized cells) and non specific binding were blocked with PBS containing 1% FBS for 30 min at RT. The first rat anti-HA monoclonal antibody (0.5 µg/ml, 3F10 clone, Roche, Meylan, France or 1 µg/ml, Santa-Cruz), mouse anti-c-myc monoclonal antibody (1.33 µg/ml, 9E10 clone, Roche), rabbit anti-UT antibody (1 µg/ml, Tebu, Santa-Cruz) or rabbit anti-β3 antibody (1∶200, Abcam, Paris, France), were added for 1 h30 at RT. Incubation with goat anti-rat (Thermo scientific, Fisher, Brebières, France), goat anti-mouse (Santa Cruz) or goat anti-rabbit (Tebu, Santa Cruz) conjugated alkaline phosphatase diluted at 1∶1000 in PBS/FBS was carried out for 30 min at RT. The cells were washed four times with PBS, a colorimetric alkaline phosphatase substrate was added (SuperSignal ELISA, Thermo scientific, Fisher) and the resulting color reaction was measured using a Viktor multilabel plate reader (PerkinElmer, Courtaboeuf, France). Background absorbance from samples transfected with non-tagged receptors or from cells without first antibodies were systematically measured. […] All experiments were done at least three times in triplicates.

[1] = tested on: α2β1 GABAAR co-expressed with human UT; assay: Patch-clamp of Iso-evoked current in CHO-UT expressing α2β1 GABAAR; conditions: hUII 10^−13 to 10^−7 M; Iso 10^−4 M, 2 s; −60 mV
[2] = tested on: GABAAR co-expressed with UT^HA 351, UT^HA 332 or UT^HA 319; assay: Patch-clamp of Iso-evoked current in CHO co-expressing GABAAR and shorter truncated UT (UT^HA 351, UT^HA 332, UT^HA 319); conditions: hUII 10^−8 M, 1 min; Iso 10^−4 M, 2 s
Source text: For UT epitope-tagged with HA (UT^HA), or c-myc (UT^c-myc), human UT receptor cDNA inserted into pcDNA3.1 (Ressource Center, MI, USA) was amplified and PCR products were subcloned using the EcoRI and XhoI sites of pCMV-HA or pCMV-c-myc. Mutant UT receptor cDNAs were constructed by oligonucleotide-directed mutagenesis (Expand High Fidelity PCR System; Roche) using the human UT receptor cDNA inserted into pcDNA3.1 as a template. Two sets of forward and reverse oligonucleotides were used (Table S2) to introduce stop codons in frame of Leu370, Phe351, Gly332 and Thr319 (to generate UT371, UT351, UT332 and UT319, respectively). PCR products were subcloned using the EcoRI and XhoI sites of pCMV-HA after digestion by the same restriction enzymes. Mutagenesis was confirmed by automated nucleotide sequencing.
The conventional whole-cell configuration of the patch-clamp technique was used to study the GABA-gated currents in astrocytes and granule neurons, UT stably transfected CHO, CHO-UT, and CHO transiently transfected with diverse variants of UT and GABAAR subunits. After 24-h transfection, cell culture coverslips were placed in a small chamber (1.5 ml) on a stage of a right microscope DMLFSA (Leica, Heidelberg, Germany) and superfused continuously with the following bath solution containing (in mM): NaCl, 150; KCl, 2.5; HEPES, 5; CaCl2, 2; MgCl2, 1; glucose, 10 (pH 7.4 adjusted with NaOH). […]

[3] = tested on: α2β3γ2 GABAAR in the absence of UT; assay: Patch-clamp of Iso-evoked current in CHO expressing α2β3γ2 GABAAR without UT; conditions: DMCM 10^−5 M; hUII and URP 10^−8 M; [Orn^5]-URP and palosuran 10^−6 M; Iso 10^−4 M, 2 s; n = 3–18
Procedure: For transfection, cells were trypsinized (0.05%), triturated in HamF-12 containing 10% FBS media, pelleted by centrifugation, resuspended in 100 µl solution V for nucleofection by an Amaxa Nucleofector Device (Köln, Germany; set to program U-016). Experiments were performed on normal CHO or on the stable CHO-UT cells and transiently transfected with combinations of cDNA encoding α2β3γ2, α2β3γ1, α2β1γ2, α2β3γ1, α2β3, β3γ2 (4 µg of cDNA total/transfection) GABAAR subunits. Cells were seeded on 14-mm poly-L-lysine-coated glass bottom insert dishes at 5×10^5 cells in a volume of 0.5 ml/dish. Cells were incubated overnight at 37°C in a humidified incubator (5% CO2) during 16 h before electrophysiological or immunocytochemical experiments.
GABAA receptor cDNA clones; α2, β1, β3, γ1 and γ2L engineered into the expression vector pCDM8 ([…], β1, γ2) or pcDNA/Amp (β3, γ1), were generously provided by Dr Wingrove (Merk Sharp and Dohme, Harlow, UK). To obtain β3 ^HA or γ2 ^HA epitope-tagged subunits, β3 or γ2 cDNA was amplified and the PCR product was subcloned using the SalI and NotI sites of pCMV-HA (Table S2) after digestion by the same restriction enzymes.
The conventional whole-cell configuration of the patch-clamp technique was used to study the GABA-gated currents in astrocytes and granule neurons, UT stably transfected CHO, CHO-UT, and CHO transiently transfected with diverse variants of UT and GABAAR subunits. After 24-h transfection, cell culture coverslips were placed in a small chamber (1.5 ml) on a stage of a right microscope DMLFSA (Leica, Heidelberg, Germany) and superfused continuously with the following bath solution containing (in mM): NaCl, 150; KCl, 2.5; HEPES, 5; CaCl2, 2; MgCl2, 1; glucose, 10 (pH 7.4 adjusted with NaOH). The patch pipettes were fabricated from 1.5 mm (outer diameter) soft glass tubes on a two-step vertical pipette puller (List-Medical, L/M-3P-A, Darmstadt, Germany). […] ATP and GTP were added to the internal solution used to fill electrode just before recording. All recordings were obtained at RT with cells voltage-clamped at −70 mV. The GABAA receptor agonist isoguvacine was prepared in the extracellular solution and was applied to cells by pneumatic pressure ejection. To prevent desenzitization, isoguvacine was more often ejected during 5 s at 2-min intervals. ATP, GTP, or guanosine 5′-O-(2-thiodiphosphate) (GDPβS) were administered through the patch pipette solution. We investigated the effect of competitive inhibition of GDP-GTP exchange by including GDPβS in the pipette solution (in addition to the normal amount of GTP). For GDPβS and the KIC, immediately following patch rupture, GABA current recordings were performed and the experiment was commenced after an equilibration period of 15 min. […]

Sequence: ETPDCFWKYCV (disulfide) [hUII, human urotensin II, synthesized by solid phase methodology]
- Loss of γ2^HA subunit from the cell surface (γ2^HA GABAAR subunit): approximately 40%
- Inhibitory effect on Iso-evoked current, α2β1 [1]: totally ineffective
- hUII effect on GABAAR activity with shorter truncated UT forms [2]: totally failed to alter the GABAAR activity
- Effect on Iso-evoked current in the absence of UT [3]: failed to affect the amplitude of the current
